Assay results reported in patent US8735140B2, “Preservation and composition of bioprocess algae for production of lipids, seedstock, and feed” (Kuehnle AgroSystems, Inc., priority 2008, dated 2014).

Test system: algae strains KAS503, KAS633 and KAS635
Test: Sorbitol treatment prior to alginate embedding, cell recovery after preservation
Format: cell-based
Procedure: In one specific embodiment, cells are treated with trehalose solution at various concentrations and left overnight. Cells are centrifuged the next day to remove the trehalose solution, and then re-suspended in sterile 0.5M D-sorbitol (Fisher Scientific […]) dissolved in salt or fresh-water medium as required by specific algae species. Cells are left to stand for 2 hours with mild agitation. After 2 hours, cells are centrifuged again to remove the 0.5M sorbitol solution and re-suspended in fresh or salt-water medium. Cells are counted after the re-suspension. Cell viability is determined by comparing the cell growth in control set with the experimental set. Specifically, cell counts are performed on all samples. The averaged density value (in cells per ml) for all the cultures after treatment is defined as “rejuvenation cell count.” In some samples, the percent recovery of cells immediately after storage is also determined. The formulae are illustrated as follows: Growth=(rejuvenation cell count)/(initial cell count) Cell recovery after storage=(cell density after storage)/(initial cell density), with controls set at 100% cell recovery. Viability after storage and rejuvenation in nutrient medium=(Growth of treatment)/(Growth of control)×100%, with controls set at 100% viability

OC[C@@H](O)[C@@H](O)[C@H](O)[C@@H](O)CO [sorbitol, D-sorbitol]
Cell recovery after preservation: increases cell recovery
